“Also recorded” adds a separate entry of the source.
Legend:
Xenopus tadpoles = assay: Tadpole assay; conditions: 10 μg/ml
B16 = assay: Cytostatic activity against B16 in culture; format: cell-based, murine; conditions: except at very high concentrations
rabbit NHE3 = rabbit NHE3 (Oryctolagus cuniculus, UniProt P26432); conditions: 5 μg/ml
Procedure: Internal pH was measured either following acid loading or in the absence of an acid-loading challenge, with the results shown in FIGS. 1A and 1B.
Specifically, PS120 fibroblasts transfected with rabbit NHE3 were grown in supplemented Dulbecco's-modified Eagle's medium as described by Levine et al., J. Biol. Chem. 268, 1993, 25527-25535. […] For cells not acid-preloaded, the actual internal pH value was monitored as a function of time following addition of squalamine, with the results depicted in FIG. 1B.
PS120 fibroblasts transfected with rabbit NHE3 were grown and acid preloaded by exposure to 40 mM NH4 Cl as described above in conjunction with FIGS. 1A and 1B. Internal cellular pH changes expressed as the rate of pH recovery as a function of restored extracellular sodium ion concentration following exposure to 10 μg/ml of the compound were assayed with the fluorescent dye BCECF-AM as described above.

[1] = test system: human umbilical venous endothelial cells; assay: LPS-/TNF-α-induced neutrophil adherence; format: cell-based; conditions: 10 μg, 1.0 μg, or 0.1 μg; three different subjects
Text: Methods 109, 1988, 175-184.

human T-cells = assay: Inhibition of PHA-stimulated human lymphocytes; format: cell-based; conditions: 10 μg/ml
Text: Results are tabulated below.

[2] = test system: vitelline capillaries of 3- to 5-day chick embryo; assay: Chick embryo vitelline capillary regression assay; format: in vivo
In short: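 Compounds applied to 3- to 5-day chick embryos in 0.1 ml of 15% Ficol 400 in PBS. Regression of vitelline capillaries, seen as pinching-off of capillary loops into enclosed sacs, was scored visually after 60 minutes.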

[3] = test system: bacteria, fungi and protozoa; conditions: in words; cited from earlier work
[4] = test system: chick chorioallantoic membrane; assay: Chorioallantoic membrane (CAM) model, inhibition of capillary growth; format: in vivo
Text: The growing capillaries within the chorioallantoic membrane model (CAM model) have been used as a system in which to evaluate the effect of agents on their potential to inhibit new vessel growth. Neovascularization occurs most aggressively over the first week of embryonic development. Thereafter capillary growth is characterized by principally "elongation" rather than "de novo" formation.
In the standard assay, agents are applied locally to a region of the embryo over which neovascularization will occur. Agents are assessed by their ability to inhibit this process, as evaluated by visual examination about 7 days after application. […] The assay utilized is described in detail in Auerbach et al., Pharm. Ther. 51, 1991, 1-11.

[5] = test system: human coronary artery smooth muscle; assay: Proliferation of human coronary artery smooth muscle in vitro; format: cell-based; conditions: FIG. 15
Text: Aminosterols of the invention may also have utility in inhibiting the growth factor mediated proliferation of smooth muscle within the artery. Following coronary angioplasty, reocclusion commonly occurs, secondary to reparative proliferation of the vascular smooth muscle within the wall of the surgically manipulated blood vessel. This process generally takes place over the course of 7-10 days. To evaluate whether an agent could prevent the growth factor mediated proliferation of smooth muscle within the artery, compound 1436 was evaluated in vitro for its effect on the proliferation of human coronary artery smooth muscle. Results for compound 1436 are shown in FIG. 13, and those for squalamine are shown in FIG. 14, with FIG. 15 being a composite logarithmic plot.

B16 melanoma [6] = assay: Synergistic inhibition of tumor growth, B16 melanoma in mice; format: in vivo, mouse; conditions: squalamine 15 mg/kg/day; compound 1436 tolerable schedule
Procedure: Based on the idea that tumor growth involves both the clonal expansion of a malignant cell along with the development of a supporting vascular supply, a combination of compound 1436 with squalamine was tested to determine whether it would achieve a synergistic effect on solid tumor growth. This concept was evaluated in the B16 melanoma model.
Animals were implanted with B16 melanoma followed by treatment with compound 1436 or 1256 administered in a combined schedule or separately. […] Thus, a combination of these two compounds achieves a therapeutic benefit in tumors dependent on neovascularization that may prevent metastatic spread.

melanoma 1205Lu = assay: Suppression of growth of human melanoma 1205Lu in RAG-1 mice; format: in vivo, mouse (human tumor)
Text: As apparent from FIG. 5, melanoma 1205Lu develops aggressively in RAG-1 mice after implantation.

rabbit NHE1 = assay: Inhibition of NHE1 in PS120 fibroblasts transfected with rabbit NHE1, internal pH by BCECF-AM; format: cell-based; conditions: 5 μg/ml; acid-preloaded; FIG. 2A
Procedure: (§1) PS120 fibroblasts transfected with rabbit or human NHE1 were grown as described above.

human NHE1 = assay: Inhibition of NHE1 in PS120 fibroblasts transfected with human NHE1, internal pH by BCECF-AM; format: cell-based; conditions: 5 μg/ml; acid-preloaded; FIG. 2B
Procedure: as §1

B16 melanoma [7] = assay: Suppression of growth of B16 melanoma in C57B mice; format: in vivo, mouse
Procedure: The growth of B16 melanoma in C57B mice is dependent upon neovascularization.
Using the growth of B16 melanoma cells in C57B mice, a recognized model for the evaluation of inhibitors of angiogenesis on the growth of cancers, the effects of subcutaneous, intraperitoneal and oral administration of squalamine were evaluated.

Sequence of rabbit NHE3 (P26432 30-832): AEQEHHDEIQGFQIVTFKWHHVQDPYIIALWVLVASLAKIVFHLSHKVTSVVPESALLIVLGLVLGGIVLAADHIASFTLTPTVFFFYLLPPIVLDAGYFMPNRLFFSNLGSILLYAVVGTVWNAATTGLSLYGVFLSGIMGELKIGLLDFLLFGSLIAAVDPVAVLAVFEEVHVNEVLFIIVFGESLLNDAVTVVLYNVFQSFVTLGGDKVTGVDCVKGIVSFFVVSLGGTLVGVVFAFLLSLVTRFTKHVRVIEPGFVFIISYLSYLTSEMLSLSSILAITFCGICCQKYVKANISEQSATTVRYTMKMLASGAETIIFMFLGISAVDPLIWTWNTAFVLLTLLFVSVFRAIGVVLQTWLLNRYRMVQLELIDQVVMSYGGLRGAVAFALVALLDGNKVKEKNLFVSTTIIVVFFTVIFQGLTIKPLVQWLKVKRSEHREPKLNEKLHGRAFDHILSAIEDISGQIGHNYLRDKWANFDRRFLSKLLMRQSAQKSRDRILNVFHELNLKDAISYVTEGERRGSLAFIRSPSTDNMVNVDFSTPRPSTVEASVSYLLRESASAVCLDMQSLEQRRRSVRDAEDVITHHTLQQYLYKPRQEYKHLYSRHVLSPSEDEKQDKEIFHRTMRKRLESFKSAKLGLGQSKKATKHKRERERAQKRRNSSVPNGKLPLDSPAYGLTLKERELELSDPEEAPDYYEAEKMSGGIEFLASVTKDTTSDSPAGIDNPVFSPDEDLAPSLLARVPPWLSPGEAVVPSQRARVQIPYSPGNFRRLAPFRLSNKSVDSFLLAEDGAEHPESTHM

## CC(C)[C@@H](CC[C@@H](C)[C@H]1CC[C@H]2[C@@H]3[C@H](O)C[C@H]4C[C@@H](NCCCNCCCCN)CC[C@]4(C)[C@H]3CC[C@]12C)OS(=O)(=O)O [Squalamine]
Xenopus tadpoles
  death / lethality time: ≤ 2 h
Xenopus tadpoles; stage 59-60 Xenopus
  observed response in tadpole: blood flow through the capillaries of the tail shut down; also recorded: unaltered blood flow through the fine capillaries of the hands and feet; also recorded: common vascular occlusive effect; also recorded: Vascular occlusion in fine capillaries of tail. No effect on vascular flow through hands or feet
B16
  cytostatic activity against B16 in culture: minimal cytostatic activity
Rabbit NHE3; FIG. 1A, 1B
  inhibition of NHE3 (Km and Vmax): inhibited NHE3 with respect to proton concentration at both Km and Vmax levels
Rabbit NHE3; not acid-preloaded, FIG. 1B
  resting internal pH: the resting pH of these cells was also inhibited
[1]
  inhibition of neutrophil adherence: no inhibition
Human T-cells
  inhibition of blast transformation, in words: Some effect
[2]; 3- to 5-day chick embryos
  effect on vitelline capillaries: disrupt vitelline capillaries
[2]; 3-day chick embryo
  lag period before constriction between capillary and secondary vessels: around 15 minutes
[2]; Table 5
  activity in vitelline capillary regression assay: especially active
[2]; chick embryo
  embryonic heart beat: continued to beat vigorously
  hemorrhage: No hemorrhage was seen
[2]; chick embryo, microscopic
  hemolysis: absence of hemolysis
[3]
  antibiotic activity: broad-spectrum antibiotic, killing bacteria, fungi and protozoa
[4]; 13-day embryo, 5.0 μg applied
  positive (fraction printed under Percentage positive): 0/26
[4]; in words
  anti-angiogenic activity in CAM: potent but specific inhibitory activity, equal in potency to the most active compounds described to date in the literature
[4]; ten times 0.65 μg, 13-day old chick
  inhibitory effect on 13-day chick: no inhibitory effect
[5]
  suppression of growth of human coronary artery smooth muscle: suppress in vitro the growth of human coronary artery smooth muscle
B16 melanoma [6]
  effect of single agent versus combination: Neither administration of squalamine at 15 mg/kg/day nor compound 1436 alone in a tolerable schedule could achieve this effect
Melanoma 1205Lu; 10, 20, 40 mg/kg/d, FIG. 5
  suppression of melanoma 1205Lu growth: suppress the growth of melanoma 1205Lu in RAG-1 mice in a dose-dependent fashion
Melanoma 1205Lu; RAG-1 mice
  reversibility after cessation of treatment: reversible
Rabbit NHE1
  inhibitory activity against rabbit NHE1: no inhibitory activity
Human NHE1
  inhibitory activity against human NHE1: no inhibitory activity
B16 melanoma [7]; B16-bearing C57B mice
  body weight and hematologic parameters: no significant depression
B16 melanoma [7]; intraperitoneal, FIG. 4B
  suppression of B16 tumor volume: dose-dependent suppression of tumor volume
B16 melanoma [7]; oral, FIG. 4C
  suppression of B16 tumor volume: dose-dependent suppression of tumor volume
B16 melanoma [7]; subcutaneous, FIG. 4A
  suppression of B16 tumor volume: dose-dependent suppression of tumor volume

— patent US5792635A, “Method of inhibiting the sodium/proton exchanger NHE3 and method of inhibiting growth by administering squalamine” (priority 1995, dated 1998)
